{"source": "patent US5744492A", "about": "“Method for inhibiting angiogenesis” (United States of America, priority 1994, dated 1998)", "key": {"[1]": {"system": "MMP-2", "assay": "Gelatin zymography of HUVEC conditioned medium, MMP-2 gelatinase activity (basal)", "assay_type": "cell-based, human", "conditions": "24 hr", "experimental": "(§1) Human umbilical vein endothelial cells (H 930) were generously supplied by Dr. Tom Maciag, American Red Cross (Gaithersburg, Md., USA) and were used between passages 9 and 14 to avoid senescence. HUVECs were grown on fibronectin-coated tissue culture plastic (200 μg/150 mm dish) in complete medium (Medium 199 (M-199) containing 5 U/mL preservative-free heparin, 25.5 μg/mL ECGS, 10% fetal bovine serum and 100 U/mL penicillin, 100 μg/mL streptomycin, and 0.25 μg/mL fungizone).\nAngiogenesis is characterized by a local degradation of subendothelial basement membrane by endothelial cell-secreted gelatinases. Aliquots of concentrated HUVEC conditioned medium from compound 1-treated and control cells were subjected to gelatin zymography, in order to test the effect of compound 1 on metalloproteinase production.\nGelatin zymography was carried out as described in Brown, et al., Cancer Research 50:6184-6191 (1990). HUVECs were seeded at 1.2×10^5 /cm^2 in 25 cm^2 fibronectin-coated tissue culture flasks in complete medium containing increasing concentrations of compound 1 (0.1-10 μM) or DMSO vehicle control. After 18 hr of culture, the complete medium was removed and the cells were washed once with serum-free M-199 supplemented with 5 μg/mL bovine insulin, 5 μg/mL human transferrin and 5 ng/mL sodium selenite (ITS). […]"}, "[2]": {"system": "MMP-2", "assay": "Gelatin zymography of HUVEC conditioned medium, bFGF-stimulated proMMP-2 and its activated form", "assay_type": "cell-based", "conditions": "Homo sapiens, bFGF 10 ng/mL for final 24 hr, read-out: inhibition of bFGF-stimulated synthesis of proMMP-2 and its activated form", "experimental": "as §1\nGelatin zymography was carried out as described in Brown, et al., Cancer Research 50:6184-6191 (1990). HUVECs were seeded at 1.2×10^5 /cm^2 in 25 cm^2 fibronectin-coated tissue culture flasks in complete medium containing increasing concentrations of compound 1 (0.1-10 μM) or DMSO vehicle control. After 18 hr of culture, the complete medium was removed and the cells were washed once with serum-free M-199 supplemented with 5 μg/mL bovine insulin, 5 μg/mL human transferrin and 5 ng/mL sodium selenite (ITS). A further 24 hr incubation was carried out with 3 mL of fresh ITS-containing M-199 and varying concentrations of compound 1 (0.1-10 μM) or DMSO vehicle control (0.1%). This conditioned medium was harvested and spun free of cells.\nSee, Rifkin, et al., J. Cell Biol. 109:1-6 (1989). […]"}, "[3]": {"system": "MMP-2", "assay": "Northern blot analysis of MMP-2 expression in HUVECs", "assay_type": "cell-based, human", "conditions": "24 hr; for inhibition at 10 µM: Homo sapiens, HUVEC", "experimental": "as §1\n(§2) HUVECs were grown to confluence as described. Fresh complete medium with test compounds was added to confluent cells for an additional 24 hr incubation. bFGF (10 ng/mL), and/or compound 1 (10 μM) or DMSO control (0.1%) were added as indicated below. Total RNA was isolated by the guanidine isothiocyanate/CsCl method. Aliquots of RNA (7.5 μg) were separated on 1% agarose/formaldehyde gels, passively transferred to GeneScreen Plus membrane in 20X SSC, then cross-linked with ultraviolet light. Blots were prewashed for 1 hr at 42° C. in 1M NaCl, 10 mM Tris, 1 mM EDTA, 0.1% SDS and then hybridized overnight at 42° C. with a formamide-containing buffer (hybridization buffer final: 50% formamide, 4X SSC, 10 mM Tris pH 7.5, IX Denhardt solution, 0.2% SDS, 125 μg/ml salmon sperm DNA) with a random-primed 300 bp insert for MMP-2 (gift of Dr. William Stetler-Stevenson, Laboratory of Pathology, NCI). Blots were washed under stringent conditions then exposed to film. After removal of MMP-2 probe, blots were rehybridized with β-actin probe for quantitation of the RNA load. Results were quantitated by densitometric evaluation of the autoradiographs.\n(§3) Lane 1 corresponds to the mRNA from HUVECs treated with DMSO (control). Lanes 2-4 show the mRNA isolated from HUVECs treated with compound 1 (10 μM) alone, compound 1 (10 μM) and bFGF (10 ng/mL), bFGF (10 ng/mL) alone, respectively."}, "[4]": {"system": "β-actin", "assay": "Northern blot, β-actin probe for quantitation of RNA load in HUVECs", "assay_type": "cell-based, human", "conditions": "24 hr", "experimental": "as §1, §2, §3"}, "[5]": {"system": "chick chorioallantoic membrane", "assay": "Chick chorioallantoic membrane (CAM) angiogenesis assay", "assay_type": "in vivo", "conditions": "48 hr", "experimental": "The chick chorioallantoic or yolk sac membrane (CAM) assays for angiogenesis are important in vivo models of microvessel formation. […] Briefly, fertilized chick embryos with the yolk intact were removed from their shells on day 3 of development and incubated at 37° C."}, "[6]": {"conditions": "bFGF 10 ng/mL + Compound 1 10 μM"}}}
{"smiles": "NC(=O)c1nnn(Cc2cc(Cl)c(C(=O)c3ccc(Cl)cc3)c(Cl)c2)c1N", "note": "[Compound 1, 5-amino-1-(4-(4-chlorobenzoyl)-3,5-dichlorobenzyl)1,2,3-triazole-4-carboxamide]", "values": [{"measurement": "inhibition of proMMP-2 and its activated form (in words)", "setting": "[1]; 0.1-10 μM", "value": "dose-dependent inhibition"}, {"measurement": "inhibition at 10 µM", "setting": "[1]; Homo sapiens, HUVEC, 10.0 μM, read-out: decrease in MMP-2 (densitometric analysis)", "value": 50, "unit": "%"}, {"measurement": "inhibition at 10 µM", "setting": "[2]", "value": 90, "unit": "%"}, {"measurement": "Corrected values (MMP-2 mRNA corrected for loading)", "setting": "[3]; Control + Compound 1, 10 μM", "value": 0.30}, {"measurement": "MMP-2 (densitometer)", "setting": "[3]; Control + Compound 1, 10 μM", "value": 38, "unit": "Densitometer units"}, {"measurement": "inhibition at 10 µM", "setting": "[3]; no bFGF, vs control, read-out: % Inhibition of native MMP-2 expression", "value": 86, "unit": "%"}, {"measurement": "inhibition at 10 µM", "setting": "[3]; bFGF 10 ng/mL, vs bFGF, read-out: % Inhibition of MMP-2 expression in presence of bFGF", "value": 62, "unit": "%"}, {"measurement": "Corrected values (MMP-2 mRNA corrected for loading)", "setting": "[3]; [6]", "value": 0.14}, {"measurement": "MMP-2 (densitometer)", "setting": "[3]; [6]", "value": 31, "unit": "Densitometer units"}, {"measurement": "β-actin (densitometer)", "setting": "[4]; Control + Compound 1, 10 μM", "value": 127, "unit": "Densitometer units"}, {"measurement": "β-actin (densitometer)", "setting": "[4]; [6]", "value": 210, "unit": "Densitometer units"}, {"measurement": "% Inhibition (capillary formation in vivo)", "setting": "[5]; 10 μM", "value": 55, "unit": "%"}, {"measurement": "Eggs with avascular zones/total", "setting": "[5]; 10 μM", "value": "19/34"}, {"measurement": "embryos with large avascular zone", "setting": "[5]; 10 μM", "value": 55, "unit": "%"}, {"measurement": "% Inhibition (capillary formation in vivo)", "setting": "[5]; 20 μM", "value": 67, "unit": "%"}, {"measurement": "Eggs with avascular zones/total", "setting": "[5]; 20 μM", "value": "20/30"}, {"measurement": "embryos with large avascular zone", "setting": "[5]; 20 μM", "value": 67, "unit": "%"}, {"measurement": "angiogenesis inhibitory effect (in words)", "setting": "[5]; 10 or 20 μM", "value": "dose-dependent"}]}
